Literature values as cited in patent US20180267043A1, “USE OF BIOMARKERS FOR PREDICTING CLINICAL SENSITIVITY TO CANCER TREATMENT” (CELGENE CORPORATION, priority 2014, published 2018).

What was measured:
CRBN [1] = biological target: T1, CRBN (Homo sapiens, UniProt Q96SW2); settings: in vitro; cited from earlier work
Target sequence in this assay (Q96SW2 whole entry): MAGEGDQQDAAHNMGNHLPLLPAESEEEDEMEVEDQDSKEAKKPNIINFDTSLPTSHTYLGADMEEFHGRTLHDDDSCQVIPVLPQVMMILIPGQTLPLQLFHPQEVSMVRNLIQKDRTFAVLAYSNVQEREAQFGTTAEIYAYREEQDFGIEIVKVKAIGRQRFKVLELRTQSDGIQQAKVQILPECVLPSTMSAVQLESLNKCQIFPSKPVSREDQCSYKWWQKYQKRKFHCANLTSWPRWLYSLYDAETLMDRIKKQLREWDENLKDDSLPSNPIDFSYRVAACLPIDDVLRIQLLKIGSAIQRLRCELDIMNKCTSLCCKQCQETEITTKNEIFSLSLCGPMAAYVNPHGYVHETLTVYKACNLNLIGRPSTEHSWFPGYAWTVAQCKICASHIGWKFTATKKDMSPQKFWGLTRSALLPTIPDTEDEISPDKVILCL
Target sequence in this assay (Q16531 whole entry partner): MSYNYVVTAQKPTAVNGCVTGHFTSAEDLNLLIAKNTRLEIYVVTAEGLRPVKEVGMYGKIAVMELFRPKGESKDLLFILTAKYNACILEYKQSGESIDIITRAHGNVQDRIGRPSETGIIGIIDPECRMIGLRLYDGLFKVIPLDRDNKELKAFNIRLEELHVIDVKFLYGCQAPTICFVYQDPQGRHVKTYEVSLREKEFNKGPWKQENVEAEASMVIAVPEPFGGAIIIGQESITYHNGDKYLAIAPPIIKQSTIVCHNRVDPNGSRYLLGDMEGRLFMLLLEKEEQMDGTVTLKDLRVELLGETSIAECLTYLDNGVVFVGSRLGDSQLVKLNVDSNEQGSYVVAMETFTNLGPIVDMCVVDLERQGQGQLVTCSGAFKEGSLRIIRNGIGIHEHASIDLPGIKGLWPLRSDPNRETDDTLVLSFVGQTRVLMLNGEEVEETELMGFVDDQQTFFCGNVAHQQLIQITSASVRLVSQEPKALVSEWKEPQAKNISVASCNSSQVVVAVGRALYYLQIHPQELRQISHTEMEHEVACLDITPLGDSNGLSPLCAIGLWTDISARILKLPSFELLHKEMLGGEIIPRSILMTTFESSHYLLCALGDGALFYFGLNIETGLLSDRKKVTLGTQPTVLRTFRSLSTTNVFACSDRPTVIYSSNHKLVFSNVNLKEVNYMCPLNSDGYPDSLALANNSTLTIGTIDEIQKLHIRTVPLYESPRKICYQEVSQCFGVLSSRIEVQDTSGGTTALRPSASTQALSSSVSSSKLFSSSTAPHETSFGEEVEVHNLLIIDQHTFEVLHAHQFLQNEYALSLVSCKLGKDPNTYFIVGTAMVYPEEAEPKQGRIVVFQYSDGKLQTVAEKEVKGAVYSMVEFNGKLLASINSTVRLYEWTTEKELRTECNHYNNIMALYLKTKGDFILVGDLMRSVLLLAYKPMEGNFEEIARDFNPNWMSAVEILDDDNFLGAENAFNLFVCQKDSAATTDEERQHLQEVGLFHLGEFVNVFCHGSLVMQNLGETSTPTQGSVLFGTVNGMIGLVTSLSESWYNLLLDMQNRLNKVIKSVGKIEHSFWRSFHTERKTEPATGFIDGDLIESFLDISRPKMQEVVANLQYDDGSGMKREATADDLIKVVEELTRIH
Target sequence in this assay (Q13619 whole entry partner): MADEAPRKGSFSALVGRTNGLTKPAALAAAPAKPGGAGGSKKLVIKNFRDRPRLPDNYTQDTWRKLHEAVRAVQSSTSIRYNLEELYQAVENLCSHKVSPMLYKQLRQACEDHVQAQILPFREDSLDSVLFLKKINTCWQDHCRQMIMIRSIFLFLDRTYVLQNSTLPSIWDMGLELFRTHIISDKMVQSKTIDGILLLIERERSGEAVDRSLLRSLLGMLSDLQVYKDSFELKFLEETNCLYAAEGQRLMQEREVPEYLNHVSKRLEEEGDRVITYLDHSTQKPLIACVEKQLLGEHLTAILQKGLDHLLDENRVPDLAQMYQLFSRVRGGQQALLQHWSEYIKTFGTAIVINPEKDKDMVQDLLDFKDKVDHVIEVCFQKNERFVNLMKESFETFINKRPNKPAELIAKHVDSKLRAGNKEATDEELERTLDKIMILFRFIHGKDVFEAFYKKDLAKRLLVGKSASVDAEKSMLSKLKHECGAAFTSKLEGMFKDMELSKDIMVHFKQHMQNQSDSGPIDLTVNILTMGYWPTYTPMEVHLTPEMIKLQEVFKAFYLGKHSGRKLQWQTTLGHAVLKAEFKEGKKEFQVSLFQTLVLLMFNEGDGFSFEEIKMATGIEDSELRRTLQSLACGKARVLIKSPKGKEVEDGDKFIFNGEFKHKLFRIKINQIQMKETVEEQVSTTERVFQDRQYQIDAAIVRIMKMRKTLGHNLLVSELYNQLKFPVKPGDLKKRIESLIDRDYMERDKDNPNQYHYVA
Target sequence in this assay (P62877 whole entry partner): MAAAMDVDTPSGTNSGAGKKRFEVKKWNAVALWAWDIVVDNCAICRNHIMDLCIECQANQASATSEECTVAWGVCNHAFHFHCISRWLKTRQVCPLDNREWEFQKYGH

CRBN [2] = biological target: T1, CRBN; settings: Ito et al., Science 2010; cited from earlier work
Target sequence in this assay (Q96SW2 whole entry): as the sequence (Q96SW2 whole entry) above

CRBN [3] = biological target: CRBN (Homo sapiens, UniProt Q96SW2, W386A/Y384A); settings: double mutant; cited from earlier work
CRBN [4] = settings: individual point mutants; cited from earlier work

Chain of CRBN (Homo sapiens, UniProt Q96SW2, W386A/Y384A) (Q96SW2 whole entry Y384A/W386A): as the sequence (Q96SW2 whole entry) above, with Y384A, W386A counted along it

O=C1CCC(N2C(=O)c3ccccc3C2=O)C(=O)N1 (stereo not shown) [thalidomide]
Auto-ubiquitination of CRBN (CRBN [1]): inhibit auto-ubiquitination of CRBN in vitro
Binding to CRBN (CRBN [2]): binds to thalidomide
Binding to CRBN double mutant (Y384A, W386A) (CRBN [3]): lowest thalidomide-binding activity
Binding to CRBN point mutants Y384A and W386A (CRBN [4]): both defective for thalidomide binding
